Measured values as given in ChEMBL document CHEMBL5726113, “Compounds and methods for kinase modulation, and indications therefor” (2017).

Biological target: RAF proto-oncogene serine/threonine-protein kinase (Homo sapiens, UniProt P04049)
Test: Biochemical Assay: Assays for biochemical and cell based activity are known in the art, for example, as described in PCT publication WO 2007/002433, the disclosure of which is hereby incorporated by reference as it relates to such assays. For example, the biochemical activity IC50 values are determined with respect to inhibition of B-Raf kinase activity, c-Raf-1 kinase activity, or B-Raf V600E kinase activity, where inhibition of phosphorylation of a peptide substrate is measured as a function of compound concentration. Compounds to be tested are diluted in dimethyl sulfoxide to a concentration of 0.1 mM. These are serially diluted 15 μL into 30 μL of dimethyl sulfoxide seven times in 96 well plates for a total of 8 dilution points, and for each dilution point 1 μL is added to a well of an assay plate. Plates are prepared such that each well in a 384 well plate contains 1 μL of compound in 10 μL volume with 0.1 ng Raf enzyme (i.e. any of B-Raf, c-Raf-1 or B-Raf V600E, Upstate Biotechnology or prepared by methods known to one of skill in the art), 50 mM HEPES, pH 7.0, 50 mM NaCl, 2 mM MgCl2, 1 mM MnCl2, 0.01% Tween-20, 1 mM DTT, and 100 nM biotin-MEK1 as substrate. The reaction is started with addition of 10 μL of 200 μM ATP (i.e. final 100 μM ATP). […]

Chain of RAF proto-oncogene serine/threonine-protein kinase (P04049 whole entry): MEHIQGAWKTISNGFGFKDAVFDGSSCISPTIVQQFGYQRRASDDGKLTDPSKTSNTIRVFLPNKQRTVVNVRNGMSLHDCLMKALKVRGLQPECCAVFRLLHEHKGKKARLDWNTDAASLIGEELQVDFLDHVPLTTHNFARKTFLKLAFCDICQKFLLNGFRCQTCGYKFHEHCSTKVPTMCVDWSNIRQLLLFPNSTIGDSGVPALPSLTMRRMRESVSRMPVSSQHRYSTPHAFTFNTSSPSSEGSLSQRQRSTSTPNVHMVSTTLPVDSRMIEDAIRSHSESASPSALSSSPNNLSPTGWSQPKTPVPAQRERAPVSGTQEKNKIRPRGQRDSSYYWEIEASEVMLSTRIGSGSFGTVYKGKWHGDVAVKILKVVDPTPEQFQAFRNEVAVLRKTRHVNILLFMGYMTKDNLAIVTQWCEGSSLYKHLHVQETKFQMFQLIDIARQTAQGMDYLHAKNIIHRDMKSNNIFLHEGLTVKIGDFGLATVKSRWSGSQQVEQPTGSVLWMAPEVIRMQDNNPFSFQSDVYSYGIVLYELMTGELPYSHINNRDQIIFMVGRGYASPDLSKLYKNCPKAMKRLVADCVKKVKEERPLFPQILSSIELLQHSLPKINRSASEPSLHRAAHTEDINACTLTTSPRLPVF

## CCCS(=O)(=O)Nc1ccc(F)c(C(=O)c2c[nH]c3ncnc(Nc4ccccc4)c23)c1F
  IC50: < 100 nM
